Data reported in ChEMBL document CHEMBL6071142, “Isoalantolactone/hydroxamic acid hybrids as potent dual STAT3/HDAC inhibitors and self-assembled nanoparticles for cancer therapy” (Eur J Med Chem, 2024).
Activity calls are given as the source filed them. No cut-off for these calls is given here.

How the values were obtained:
Histone deacetylase 5 = Histone deacetylase 5 (Homo sapiens, UniProt Q9UQL6); experiment: Inhibition of recombinant human HDAC5 using Boc-Lys (trifluroacetyl)-AMC as substrate preincubated with compound for 1 hr followed by substrate addition and measured after 30 mins by microplate reader assay
Histone deacetylase 5, sequence (Q9UQL6 whole entry): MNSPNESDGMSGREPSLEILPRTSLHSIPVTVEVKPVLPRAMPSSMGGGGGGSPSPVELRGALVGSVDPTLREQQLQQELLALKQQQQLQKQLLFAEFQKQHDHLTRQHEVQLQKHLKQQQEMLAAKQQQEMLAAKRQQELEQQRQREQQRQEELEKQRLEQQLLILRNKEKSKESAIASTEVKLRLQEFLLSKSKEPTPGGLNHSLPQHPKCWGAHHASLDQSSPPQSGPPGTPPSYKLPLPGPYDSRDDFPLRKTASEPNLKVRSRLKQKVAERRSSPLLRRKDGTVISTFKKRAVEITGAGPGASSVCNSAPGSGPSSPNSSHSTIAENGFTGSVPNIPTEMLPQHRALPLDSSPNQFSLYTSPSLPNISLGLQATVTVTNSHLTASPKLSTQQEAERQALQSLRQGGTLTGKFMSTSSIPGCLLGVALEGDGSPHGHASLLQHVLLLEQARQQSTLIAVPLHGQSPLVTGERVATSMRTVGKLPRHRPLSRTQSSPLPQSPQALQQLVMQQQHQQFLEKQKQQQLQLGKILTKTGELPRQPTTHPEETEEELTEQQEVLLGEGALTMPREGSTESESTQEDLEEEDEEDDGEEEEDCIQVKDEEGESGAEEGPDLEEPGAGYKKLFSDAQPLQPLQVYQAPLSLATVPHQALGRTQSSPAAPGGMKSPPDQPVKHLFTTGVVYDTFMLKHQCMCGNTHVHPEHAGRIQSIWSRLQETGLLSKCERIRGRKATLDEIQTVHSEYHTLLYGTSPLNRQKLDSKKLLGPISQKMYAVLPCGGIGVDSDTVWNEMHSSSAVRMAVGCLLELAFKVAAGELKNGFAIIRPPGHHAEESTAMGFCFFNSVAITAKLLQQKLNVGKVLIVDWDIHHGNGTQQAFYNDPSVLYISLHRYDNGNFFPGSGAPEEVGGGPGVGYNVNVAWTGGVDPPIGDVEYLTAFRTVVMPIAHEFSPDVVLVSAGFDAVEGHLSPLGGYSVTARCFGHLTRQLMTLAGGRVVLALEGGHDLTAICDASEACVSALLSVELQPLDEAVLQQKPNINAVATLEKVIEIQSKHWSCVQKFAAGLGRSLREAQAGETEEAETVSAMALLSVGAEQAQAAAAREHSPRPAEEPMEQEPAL

[1] = Drug accumulation in tumor of nude mouse xenografted with A549 cells assessed as increase in fluorescence at 5 mg/kg, iv using chlorine e6 loaded self assembled nanoparticle as source of compound by in vivo fluorescence imaging
Histone deacetylase 1 = Histone deacetylase 1 (Homo sapiens, UniProt Q13547); experiment: Inhibition of recombinant human HDAC1 using Boc-Lys (acetyl)-AMC as substrate preincubated with compound for 1 hr followed by substrate addition and measured after 30 mins by microplate reader assay
Histone deacetylase 1, sequence (Q13547 whole entry): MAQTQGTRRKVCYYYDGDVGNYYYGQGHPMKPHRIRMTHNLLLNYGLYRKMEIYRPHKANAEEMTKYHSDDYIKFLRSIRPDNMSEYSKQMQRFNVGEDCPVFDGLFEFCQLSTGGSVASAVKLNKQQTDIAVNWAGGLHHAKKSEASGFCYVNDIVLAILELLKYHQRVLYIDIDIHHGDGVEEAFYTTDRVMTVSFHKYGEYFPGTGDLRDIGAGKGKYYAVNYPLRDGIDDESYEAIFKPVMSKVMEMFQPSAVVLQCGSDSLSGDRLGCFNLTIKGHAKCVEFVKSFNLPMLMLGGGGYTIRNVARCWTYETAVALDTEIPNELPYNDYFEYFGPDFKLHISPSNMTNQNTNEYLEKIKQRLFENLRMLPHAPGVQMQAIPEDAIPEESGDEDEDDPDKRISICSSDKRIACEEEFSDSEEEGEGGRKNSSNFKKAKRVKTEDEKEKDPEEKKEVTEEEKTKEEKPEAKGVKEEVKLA

A549 [2] = experiment: Induction of apoptosis in human A549 cells assessed as necrotic cells at 4 uM incubated for 24 hrs by Annexin V-FITC/PI staining based flow cytometric analysis (reference value: 1.20%); format: functional
[3] = Drug accumulation in nude mouse xenografted with A549 cells assessed as increase in fluorescence at 5 mg/kg, iv using chlorine e6 loaded self-assembled nanoparticle as source of compound incubated for 24 hrs by ex-vivo fluorescence based analysis; format: ADME, organism-based
[4] = Toxicity in female BALB/c nu/nu mouse xenografted with human A549 cells assessed as effect on spleen at 2.5 mg/kg, iv by H and E staining based analysis; format: organism-based; settings: in vivo
A549 [5] = experiment: Induction of autophagy in human A549 cells transfected with mRFP-GFP-LC3 assessed as increase in LC3-II:LC3-I protein level at 0.5 uM by Western blot analysis; format: functional, cell-based; settings: time 0-72 hrs, TDE = time-dependent effect
A549 [6] = experiment: In vivo antitumor activity against human A549 cells xenografted in female BALB/c nu/nu mouse assessed as tumor volume at 5 mg/kg, iv administered every 3 days using self assembled nanoparticle as source of compound and measured on 18 day relative to control; format: functional; settings: time 3 day
[7] = Toxicity in female BALB/c nu/nu mouse xenografted with human A549 cells assessed as effect on heart at 5 mg/kg, iv by H and E staining based analysis; format: organism-based; settings: in vivo
[8] = Toxicity in female BALB/c nu/nu mouse xenografted with human A549 cells assessed as effect on liver at 5 mg/kg, iv by H and E staining based analysis; format: organism-based; settings: in vivo
Histone deacetylase 11 = Histone deacetylase 11 (Homo sapiens, UniProt Q96DB2); experiment: Inhibition of recombinant human HDAC11 using Boc-Lys (trifluroacetyl)-AMC as substrate preincubated with compound for 1 hr followed by substrate addition and measured after 30 mins by microplate reader assay
Histone deacetylase 11, sequence (Q96DB2 whole entry): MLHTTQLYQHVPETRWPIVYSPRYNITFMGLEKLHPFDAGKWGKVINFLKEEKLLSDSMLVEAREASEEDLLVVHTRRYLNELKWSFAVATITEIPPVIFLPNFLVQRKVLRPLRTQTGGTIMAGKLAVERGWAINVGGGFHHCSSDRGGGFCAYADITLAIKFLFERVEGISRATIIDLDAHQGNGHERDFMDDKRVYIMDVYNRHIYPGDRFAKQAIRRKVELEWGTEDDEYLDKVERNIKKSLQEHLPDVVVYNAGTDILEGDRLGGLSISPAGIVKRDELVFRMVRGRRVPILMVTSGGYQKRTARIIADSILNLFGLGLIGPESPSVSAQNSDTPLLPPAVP

A549 [9] = experiment: Induction of apoptosis in human A549 cells assessed as viable cells at 2 uM incubated for 24 hrs by Annexin V-FITC/PI staining based flow cytometric analysis (reference value: 95.08%); format: functional; settings: Homo sapiens, A549, read-out: Activity
[10] = Toxicity in female BALB/c nu/nu mouse xenografted with human A549 cells assessed as effect on spleen at 5 mg/kg, iv by H and E staining based analysis; format: organism-based; settings: in vivo
HeLa = experiment: Anticancer activity against human HeLa cells assessed as cell viability incubated for 72 hrs using self assembled nanoparticle as source of compound by CCK-8 assay; format: functional, cell-based
[11] = target: Signal transducer and activator of transcription 3 (Homo sapiens, UniProt P40763); experiment: Binding affinity to recombinant human STAT3 using 5-FAM-G(pTyr)LPQTV-NH2 as substrate preincubated with compound for 1 hr followed by substrate addition and measured after 30 mins by fluorescent polarization based binding assay
Signal transducer and activator of transcription 3, sequence (P40763 whole entry): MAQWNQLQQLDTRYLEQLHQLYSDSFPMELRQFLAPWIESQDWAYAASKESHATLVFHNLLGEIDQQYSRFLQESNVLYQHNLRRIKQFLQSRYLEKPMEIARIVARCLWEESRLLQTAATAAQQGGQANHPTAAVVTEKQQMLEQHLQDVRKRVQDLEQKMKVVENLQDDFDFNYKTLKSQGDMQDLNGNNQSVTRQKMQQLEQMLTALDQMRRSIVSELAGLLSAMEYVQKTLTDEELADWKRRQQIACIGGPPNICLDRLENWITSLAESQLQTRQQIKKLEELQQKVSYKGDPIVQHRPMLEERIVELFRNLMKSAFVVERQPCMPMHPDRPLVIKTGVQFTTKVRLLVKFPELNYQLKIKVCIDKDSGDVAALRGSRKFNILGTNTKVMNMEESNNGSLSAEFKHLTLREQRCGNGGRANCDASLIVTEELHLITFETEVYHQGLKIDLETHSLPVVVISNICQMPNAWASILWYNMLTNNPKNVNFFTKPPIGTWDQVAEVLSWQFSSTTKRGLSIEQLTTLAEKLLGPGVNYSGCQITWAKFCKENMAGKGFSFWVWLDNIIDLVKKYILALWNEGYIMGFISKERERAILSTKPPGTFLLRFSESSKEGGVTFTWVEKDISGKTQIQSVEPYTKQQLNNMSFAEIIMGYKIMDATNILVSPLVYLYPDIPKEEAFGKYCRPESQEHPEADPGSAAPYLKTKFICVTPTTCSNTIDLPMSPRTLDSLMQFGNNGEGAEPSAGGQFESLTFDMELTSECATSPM

[12] = Toxicity in female BALB/c nu/nu mouse xenografted with human A549 cells assessed as effect on body weight at 5 mg/kg, iv and measured regularly; format: organism-based; settings: in vivo
A549 [13] = experiment: In vivo antitumor activity against human A549 cells xenografted in female BALB/c nu/nu mouse assessed as decrease in STAT3 phosphorylation level at 5 mg/kg, iv administered every 3 days for 9 days by Western blotting analysis; format: functional, organism-based; settings: time 3.0 day
A549 [14] = experiment: In vivo antitumor activity against human A549 cells xenografted in female BALB/c nu/nu mouse assessed as tumor volume at 5 mg/kg, iv administered every 3 days and measured on 18 day relative to control; format: functional; settings: time 3 day
A549 [15] = experiment: In vivo antitumor activity against human A549 cells xenografted in female BALB/c nu/nu mouse assessed as tumor volume at 2.5 mg/kg, iv administered every 3 days and measured on 18 day relative to control; format: functional; settings: time 3 day
Histone deacetylase 9 = Histone deacetylase 9 (Homo sapiens, UniProt Q9UKV0); experiment: Inhibition of recombinant human HDAC9 using Boc-Lys (trifluroacetyl)-AMC as substrate preincubated with compound for 1 hr followed by substrate addition and measured after 30 mins by microplate reader assay
[16] = Drug uptake in human A549 cells assessed as increase in red fluorescence incubated for 4 hrs using chlorine e6 loaded self assembled nanoparticle as source of compound by fluorescence based flow cytometric analysis; format: ADME, cell-based; settings: a549, 4 h
[17] = Biodistribution in heart of nude mouse xenografted with A549 cells at 5 mg/kg, iv using chlorine e6 loaded self-assembled nanoparticle as source of compound incubated for 24 hrs by ex-vivo fluorescence based LC-MS/MS analysis; format: ADME, organism-based
A549 [18] = experiment: In vivo antitumor activity against human A549 cells xenografted in female BALB/c nu/nu mouse assessed as Ac-tubulin at 5 mg/kg, iv administered every 3 days for 9 days by Western blotting analysis; format: functional, organism-based; settings: time 3.0 day
[19] = target: Class 1 histone deacetylase (Homo sapiens) (UniProt Q13547+O15379+Q92769+Q9BY41); experiment: Inhibition of class 1 HDAC in human A549 cells assessed as increase in Ac-histone H3 level at 0.5 uM incubated for 12 hrs by Western blot analysis; format: cell-based
Class 1 histone deacetylase (Homo sapiens), sequence (O15379 whole entry, looked up): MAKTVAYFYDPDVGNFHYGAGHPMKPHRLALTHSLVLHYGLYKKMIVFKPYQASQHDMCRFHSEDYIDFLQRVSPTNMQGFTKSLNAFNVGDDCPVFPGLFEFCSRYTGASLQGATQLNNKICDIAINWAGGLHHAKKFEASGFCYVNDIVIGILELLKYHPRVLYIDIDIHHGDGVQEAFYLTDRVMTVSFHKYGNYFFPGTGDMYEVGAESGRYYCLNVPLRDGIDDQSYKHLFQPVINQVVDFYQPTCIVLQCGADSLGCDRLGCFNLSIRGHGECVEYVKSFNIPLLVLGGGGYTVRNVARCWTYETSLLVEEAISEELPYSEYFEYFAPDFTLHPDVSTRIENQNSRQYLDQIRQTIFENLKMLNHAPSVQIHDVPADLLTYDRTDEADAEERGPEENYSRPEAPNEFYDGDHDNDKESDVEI
Class 1 histone deacetylase (Homo sapiens), sequence (Q13547 whole entry, looked up): as the sequence (Q13547 whole entry) above
Class 1 histone deacetylase (Homo sapiens), sequence (Q92769 whole entry, looked up): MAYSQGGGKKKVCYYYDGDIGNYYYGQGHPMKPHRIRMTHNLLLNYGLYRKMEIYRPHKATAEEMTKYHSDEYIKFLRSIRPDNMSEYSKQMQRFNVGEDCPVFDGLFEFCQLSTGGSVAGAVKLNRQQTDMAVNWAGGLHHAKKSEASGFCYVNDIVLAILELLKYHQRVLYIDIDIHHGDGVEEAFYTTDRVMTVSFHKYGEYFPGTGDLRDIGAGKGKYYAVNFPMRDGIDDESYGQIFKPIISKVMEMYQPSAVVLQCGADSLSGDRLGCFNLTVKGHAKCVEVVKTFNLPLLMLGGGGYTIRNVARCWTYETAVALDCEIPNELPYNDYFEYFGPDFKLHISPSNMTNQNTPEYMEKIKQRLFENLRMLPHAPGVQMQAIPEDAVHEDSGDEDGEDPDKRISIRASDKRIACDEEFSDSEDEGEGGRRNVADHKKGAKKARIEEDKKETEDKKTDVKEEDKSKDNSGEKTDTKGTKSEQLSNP
Class 1 histone deacetylase (Homo sapiens), sequence (Q9BY41 whole entry, looked up): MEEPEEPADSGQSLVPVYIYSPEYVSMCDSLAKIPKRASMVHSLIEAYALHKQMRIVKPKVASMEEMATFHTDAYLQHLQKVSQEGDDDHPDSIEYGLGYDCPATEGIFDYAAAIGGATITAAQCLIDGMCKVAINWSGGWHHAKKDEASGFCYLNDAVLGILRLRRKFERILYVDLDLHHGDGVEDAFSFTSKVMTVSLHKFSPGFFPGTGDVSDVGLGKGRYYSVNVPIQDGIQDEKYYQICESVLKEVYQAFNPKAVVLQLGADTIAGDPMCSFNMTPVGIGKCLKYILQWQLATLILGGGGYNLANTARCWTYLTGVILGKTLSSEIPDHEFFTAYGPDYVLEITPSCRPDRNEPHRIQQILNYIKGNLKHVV

A549 [20] = experiment: Induction of autophagy in human A549 cells transfected with mRFP-GFP-LC3 assessed as increase in yellow puncta at 0.5 uM incubated for 24 hrs by confocal microscopic analysis; format: functional, cell-based
A549 [21] = experiment: In vivo antitumor activity against human A549 cells xenografted in female BALB/c nu/nu mouse assessed as Ac-Histone H3 at 5 mg/kg, iv administered every 3 days for 18 days by Western blotting analysis; settings: time 3.0 day
A549 [22] = experiment: Induction of apoptosis in human A549 cells assessed as viable cells at 4 uM incubated for 24 hrs by Annexin V-FITC/PI staining based flow cytometric analysis (reference value: 95.08%); format: functional; settings: read-out: Activity
[23] = target: Signal transducer and activator of transcription 5B (Homo sapiens, UniProt P51692); experiment: Binding affinity to STAT5B (unknown origin) assessed as dissociation constant by SPR assay
Signal transducer and activator of transcription 5B, sequence (P51692 whole entry): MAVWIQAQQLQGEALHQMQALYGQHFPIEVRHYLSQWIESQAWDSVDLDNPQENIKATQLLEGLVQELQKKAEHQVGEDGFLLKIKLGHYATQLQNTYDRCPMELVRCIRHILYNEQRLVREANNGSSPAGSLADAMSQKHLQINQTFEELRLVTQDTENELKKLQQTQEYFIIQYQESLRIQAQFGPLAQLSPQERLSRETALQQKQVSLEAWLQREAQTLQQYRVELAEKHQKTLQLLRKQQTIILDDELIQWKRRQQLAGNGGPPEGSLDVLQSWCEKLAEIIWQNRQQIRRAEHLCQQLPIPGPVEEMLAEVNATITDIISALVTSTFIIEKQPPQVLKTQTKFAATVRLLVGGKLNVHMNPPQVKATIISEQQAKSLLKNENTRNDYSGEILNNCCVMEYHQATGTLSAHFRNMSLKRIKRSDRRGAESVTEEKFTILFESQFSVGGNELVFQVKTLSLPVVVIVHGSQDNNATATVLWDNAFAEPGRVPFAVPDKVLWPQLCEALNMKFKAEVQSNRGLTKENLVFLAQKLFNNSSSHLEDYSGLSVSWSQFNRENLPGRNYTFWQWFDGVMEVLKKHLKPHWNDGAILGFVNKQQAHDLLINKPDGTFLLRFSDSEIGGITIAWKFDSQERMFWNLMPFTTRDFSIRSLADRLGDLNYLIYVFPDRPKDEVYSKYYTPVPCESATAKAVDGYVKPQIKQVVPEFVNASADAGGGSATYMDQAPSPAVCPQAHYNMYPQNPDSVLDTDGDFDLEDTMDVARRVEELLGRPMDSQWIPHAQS

[24] = Toxicity in female BALB/c nu/nu mouse xenografted with human A549 cells assessed as effect on liver at 2.5 mg/kg, iv by H and E staining based analysis; format: organism-based; settings: in vivo
A549 [25] = experiment: Induction of apoptosis in human A549 cells at 2 uM incubated for 24 hrs by Annexin V-FITC/PI staining based flow cytometric analysis; format: functional

In the case of `C=C1C(=O)O[C@@H]2C[C@@]3(C)CC[C@@H](OC(=O)[C@H](C)NC(=O)c4ccc(/C=C/C(=O)NO)cc4)C(=C)[C@@H]3C[C@H]12`, the IC50 (Histone deacetylase 5) is reported as greater than 10000 nM, the Drug uptake [1] is reported as “Active” and the IC50 (Histone deacetylase 1) is reported as 62 nM. For the same molecule, the Activity (A549 [2]) was 2.99%, the Drug uptake [3] was “Active” and the Activity [4] was “Non-Toxic”. The Activity (A549 [5]) was “Tde”, the Activity (A549 [6]) was 19.9% and the Activity [7] was “Non-Toxic”. For the same molecule, the Activity [8] was “Non-Toxic”, the IC50 (Histone deacetylase 11) was 265 nM and the viability at 2 µM (A549 [9]) was 82.5%. The Activity [10] was “Non-Toxic”, the IC50 (HeLa) was 72 nM and the IC50 [11] was 350 nM. The Activity ([11]; time 1.5 hrs) was “Dose-Dependent Effect”, the Activity [12] was “Non-Toxic” and the Activity (A549 [13]) was “Active”. For the same molecule, the Activity (A549 [14]) was 47.3%, the Activity (A549 [15]) was 70.7% and the IC50 (Histone deacetylase 9) was greater than 10000 nM. The Drug uptake [16] was “Active”, the Drug uptake [17] was “Active” and the Activity (A549 [18]) was “Active”. For the same molecule, the inhibition [19] was “Active”, the Activity (A549 [20]) was “Active” and the Activity (A549 [21]) was “Active”. The viability at 4 µM (A549 [22]) was 56.2%, the Kd [23] was “Not Active” and the Activity [24] was “Non-Toxic”. It also gave an Activity (A549 [25]) of 15%.
